Reference: US10221163B2 (priority 2015, dated 2019)
Read-outs that look alike come from different tables or passages of the source.

Experiments:
NDM-1 = NDM-1 (Klebsiella pneumoniae, UniProt C7C422); test: biochemical; format: biochemical; conditions: fluorescence assay, CCF2-FA substrate, 1 pM enzyme, 2 hours at 25° C.; read-out: NDM-1 IC50
Method in brief: (§1)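 Inhibitor was mixed with the metallo-β-lactamase and CCF2-FA. After 2 hours at 25° C, fluorescence of the coumarin–fluorescein cephalosporin substrate was read. IC50 was calculated with a 4-parameter fit.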

IMP-1 = IMP-1 (Serratia marcescens, UniProt P52699); test: biochemical; format: biochemical; conditions: CCF2-FA substrate, 2 pM enzyme, 2 hours at 25° C.
Sequence of IMP-1 (P52699 whole entry, looked up, species assumed): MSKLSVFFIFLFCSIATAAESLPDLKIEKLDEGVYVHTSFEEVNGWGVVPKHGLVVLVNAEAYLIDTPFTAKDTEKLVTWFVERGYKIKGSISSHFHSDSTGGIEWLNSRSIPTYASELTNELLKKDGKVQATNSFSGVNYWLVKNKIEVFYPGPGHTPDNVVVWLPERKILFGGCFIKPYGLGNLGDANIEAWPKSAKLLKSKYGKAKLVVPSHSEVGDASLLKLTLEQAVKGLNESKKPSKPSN
Method in brief: as §1

[1] = system: Pseudomonas aeruginosa MB9798 vs MB9799
Method in brief: (§2)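 PAO1 pair, broth microdilution; fixed β-lactam (imipenem/ceftazidime) at ~CLSI breakpoint + fixed class A/C BLI for AmpC; serial MBLi titration; endpoint = MBLi conc. restoring susceptibility; MB9798:MB9799 ratio = efflux liability.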

[2] = system: Pseudomonas aeruginosa efflux− (MB9799), IMP-1; format: cell-based; conditions: C, D serine β-lactamase inhibitor closely related to relebactam; for P. aeruginosa expressing IMP-1, efflux − (MB9799) MITC95: concentration restoring susceptibility to imipenem at 2 μg/mL in the presence of a class A; for Concentration of metallo-β-lactamase inhibitor which restores susceptibility of efflux − (MB9799) strain to imipenem: imipenem at 2 μg/mL, in the presence of a class A
Method in brief: as §2

[3] = system: Pseudomonas aeruginosa efflux+ (MB9798), IMP-1; format: cell-based; set-up: Concentration of metallo-β-lactamase inhibitor which restores susceptibility of efflux + (MB9798) strain to imipenem: unit not given here; conditions: C, D serine β-lactamase inhibitor closely related to relebactam; for P. aeruginosa expressing IMP-1, efflux + (MB9798) MITC95: concentration restoring susceptibility to imipenem at 2 μg/mL in the presence of a class A; for Concentration of metallo-β-lactamase inhibitor which restores susceptibility of efflux + (MB9798) strain to imipenem: imipenem at 2 μg/mL, in the presence of a class A
Method in brief: as §2

VIM-1 = VIM-1 (Pseudomonas aeruginosa (strain ATCC 15692 / DSM 22644 / CIP 104116 / JCM 14847 / LMG 12228 / 1C / PRS 101 / PAO1), UniProt A0A0F7KYQ8); test: biochemical; conditions: CCF2-FA substrate, 30 pM enzyme, 2 hours at 25° C.
Method in brief: as §1

[4] = system: Escherichia coli expressing NDM-1 (CLB30005, CLB30016); format: cell-based; conditions: NDM-1 strain, with imipenem 1 μg/ml, 95% inhibition of growth
Method in brief: (§3)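 Colonies grown overnight on blood agar at 35° C were suspended in saline, diluted 1:100 into 1.1×CAMHB and dispensed. Imipenem was added to 1 μg/ml, then test compound. After 22 hours to 24 hours at 35° C, absorbance was recorded.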

[5] = system: Serratia marcescens expressing IMP-1 (CL5741); format: cell-based; conditions: IMP-1 strain CL5741, with imipenem 1 μg/ml, 95% inhibition of growth
Method in brief: as §3

[6] = system: Klebsiella pneumoniae expressing VIM-1 (IHMA599644); format: cell-based; conditions: VIM-1 strain IHMA599644, with imipenem 1 μg/ml, 95% inhibition of growth
Method in brief: as §3

[7] = fluorescence assay, read-out: IMP-1 IC50
[8] = ratio MITC95 PA_9798/MITC95 PA_9799
[9] = fluorescence assay, read-out: VIM-1 IC50
[10] = fold difference between efflux+ (MB9798) and efflux− (MB9799) strains, imipenem at 2 μg/mL

Sequence of NDM-1 (C7C422 whole entry, looked up, species assumed): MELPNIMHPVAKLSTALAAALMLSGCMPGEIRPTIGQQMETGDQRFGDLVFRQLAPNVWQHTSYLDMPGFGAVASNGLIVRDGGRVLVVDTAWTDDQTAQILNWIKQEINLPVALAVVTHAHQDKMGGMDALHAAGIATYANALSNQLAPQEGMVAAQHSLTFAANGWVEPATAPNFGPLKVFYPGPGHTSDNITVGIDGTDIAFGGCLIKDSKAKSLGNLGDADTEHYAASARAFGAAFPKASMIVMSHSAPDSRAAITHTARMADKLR

Row | SMILES | IC50 (NDM-1) [nM] | IC50 (IMP-1; [7]) [nM] | Efflux ratio [1, 8] | P. aeruginosa expressing IMP-1, efflux − (MB9799) MITC95 [2] [µM] | P. aeruginosa expressing IMP-1, efflux + (MB9798) MITC95 [3] [µM] | IC50 (VIM-1; [9]) [nM] | Escherichia coli MITC95 [4] [µM] | Serratia marcescens MITC95 [5] [µM] | Klebsiella pneumoniae MITC95 [6] [µM] | IC50 (VIM-1; VIM-1 IC50, fluorescence assay) [nM] | IC50 (IMP-1; IMP-1 IC50, fluorescence assay) [nM] | Efflux ratio [1, 10] | Concentration of metallo-β-lactamase inhibitor which restores susceptibility of efflux − (MB9799) strain to imipenem [2] | Concentration of metallo-β-lactamase inhibitor which restores susceptibility of efflux + (MB9798) strain to imipenem [3]
1 | NC[C@@H](N)CNS(=O)(=O)c1ccc(-c2cnc(N)s2)c(-c2nn[nH]n2)c1S(N)(=O)=O [Example 377, (R)-4-(2-aminothiazol-5-yl)-N1-(2,3-diaminopropyl)-3-(2H-tetrazol-5-yl)benzene-1,2-disulfonamide] | 0.573 | 1.18 | 2.00 | 0.7813 | 1.563 | 0.885 | 0.7813 | 1.563 | 3.125 |  |  |  |  | 
2 | NC[C@@H](N)CNS(=O)(=O)c1ccc(-c2cnc3cc[nH]c3c2)c(-c2nn[nH]n2)c1S(N)(=O)=O [Example 378, (R)-N1-(2,3-diaminopropyl)-4-(1H-pyrrolo[3,2-b]pyridin-6-yl)-3-(2H-tetrazol-5-yl)benzene-1,2-disulfonamide] | 0.0511 | 0.354 | 2.00 | 1.563 | 3.125 |  | 0.7813 | 1.563 | 3.125 | 0.0985 |  |  |  | 
3 | NCc1nc2c(-c3ccc(S(=O)(=O)N[C@@H](CN)CO)c(S(N)(=O)=O)c3-c3nn[nH]n3)cccc2[nH]1 [Example 379, (S)—N^1-(1-amino-3-hydroxypropan-2-yl)-4-(2-(aminomethyl)-1H-benzo[d]imidazol-4-yl)-3-(2H-tetrazol-5-yl)benzene-1,2-disulfonamide] | 0.0956 | 0.626 | 2.00 | 0.7813 | 1.563 |  | 1.563 | 1.563 | 1.563 | 0.135 |  |  |  | 
4 | NC[C@@H](CO)NS(=O)(=O)c1ccc(-c2ccnc(N)c2)c(-c2nn[nH]n2)c1S(N)(=O)=O [Example 380, (S)—N1-(1-amino-3-hydroxypropan-2-yl)-4-(2-aminopyridin-4-yl)-3-(2H -tetrazol-5-yl)benzene-1,2-disulfonamide] | 0.178 | 0.544 | 1.00 | 0.7813 | 0.7813 |  | 0.4883 | 0.7813 | 1.563 | 0.179 |  |  |  | 
5 | NCc1nc2c(-c3ccc(S(=O)(=O)N[C@@H](CN)CO)c(S(N)(=O)=O)c3-c3nn[nH]n3)cccc2s1 [Example 381, (S)—N1-(1-amino-3-hydroxypropan-2-yl)-4-(2-(aminomethyl)benzo[d]thiazol-4-yl)-3-(2H-tetrazol-5-yl)benzene-1,2-disulfonamide] | 0.0602 | 0.241 | 1.50 | 0.7813 | 1.172 |  | 0.7813 | 1.172 | 2.344 | 0.117 |  |  |  | 
6 | NC[C@@H](CO)NS(=O)(=O)c1ccc(-c2cccc(N)n2)c(-c2nn[nH]n2)c1S(N)(=O)=O [Example 382, (S)—N1-(1-amino-3-hydroxypropan-2-yl)-4-(6-aminopyridin-2-yl)-3-(2H-tetrazol-5-yl)benzene-1,2-disulfonamide] | 0.22 | 0.651 | 1.00 | 1.563 | 1.563 | 0.271 | 1.563 | 1.563 | 3.125 |  |  |  |  | 
7 | C[C@H](CN)NS(=O)(=O)c1ccc(-c2cccc3[nH]c(CN)nc23)c(-c2nn[nH]n2)c1S(N)(=O)=O [Example 383, (R)-4-(2-(aminomethyl)-1H-benzo[d]imidazol-4-yl)-N1-(1-aminopropan-2-yl)-3-(2H-tetrazol-5-yl)benzene-1,2-disulfonamide] | 0.0568 | 0.536 | 1.00 | 0.7813 | 0.7813 | 0.102 | 0.7813 | 1.563 | 1.563 |  |  |  |  | 
8 | C[C@H](CN)NS(=O)(=O)c1ccc(-c2cccn3ccnc23)c(-c2nn[nH]n2)c1S(N)(=O)=O [Example 384, (R)—N1-(1-aminopropan-2-yl)-4-(imidazo[1,2-a]pyridin-8-yl)-3-(2H -tetrazol-5-yl) benzene-1,2-disulfonamide] | 0.0233 | 0.0539 | 0.50 | 1.563 | 0.7813 | 0.0539 | 1.563 | 3.125 | 3.125 |  |  |  |  | 
9 | NCc1nc2c(-c3ccc(S(=O)(=O)NC(CN)CN)c(S(N)(=O)=O)c3-c3nn[nH]n3)cccc2[nH]1 [Example 385, 4-(2-(Aminomethyl)-1H-benzo[d]imidazol-4-yl)-N1-(1,3-diaminopropan-2-yl)-3-(2H-tetrazol-5-yl)benzene-1,2-disulfonamide] | 0.111 | 0.782 | 1.00 | 0.7813 | 0.7813 | 0.13 | 0.7813 | 0.7813 | 1.563 |  |  |  |  | 
10 | NCC(CN)NS(=O)(=O)c1ccc(-c2cccn3ccnc23)c(-c2nn[nH]n2)c1S(N)(=O)=O [Example 386, N1-(1,3-diaminopropan-2-yl)-4-(imidazo[1,2-c]pyridin-8-yl)-3-(2H-tetrazol-5-yl) benzene-1,2-disulfonamide] | 0.133 | 0.141 | 1.00 | 1.563 | 1.563 |  | 0.9766 | 1.563 | 3.125 | 0.168 |  |  |  | 
11 | C[C@@H](CN)NS(=O)(=O)c1ccc(-c2cccc3sc(N)nc23)c(-c2nn[nH]n2)c1S(N)(=O)=O [Example 389, 4-(2-amino-1,3-benzothiazol-4-yl)-N^1-[(1S)-2-amino-1-methylethyl]-3-(2H-tetrazol-5-yl)benzene-1,2-disulfonamide] | 0.289 |  |  |  |  |  | 3.125 | 3.125 | 3.125 | 0.744 | 1.81 | 1.00 | 1.563 | 1.563
12 | C[C@@H](N)CNS(=O)(=O)c1ccc(-c2cccc3sc(N)nc23)c(-c2nn[nH]n2)c1S(N)(=O)=O [Example 390, 4-(2-amino-1,3-benzothiazol-4-yl)-N^1-[(2R)-2-aminopropyl]-3-(2H-tetrazol-5-yl)benzene-1,2-disulfonamide] | 0.0605 |  |  |  |  |  | 3.125 | 1.563 | 3.125 | 0.33 | 0.341 | 0.50 | 1.563 | 0.7813
